Laboratory results from ChEMBL document CHEMBL1629699, “Cell wall thickening is not a universal accompaniment of the daptomycin nonsusceptibility phenotype in Staphylococcus aureus: evidence for multiple resistance mechanisms” (Antimicrob Agents Chemother, 2010).
≈ marks a conversion by molar mass, not a printed value.

Tests used:
[1] = tested on: Staphylococcus aureus; assay: Antimicrobial activity against Staphylococcus aureus CB1482 after 24 hrs by plate reader analysis; settings: CB1482, 24 h
[2] = tested on: Staphylococcus aureus; assay: Antimicrobial activity against Staphylococcus aureus CB5053 by Etest
[3] = tested on: Staphylococcus aureus; assay: Antimicrobial activity against Staphylococcus aureus CB5054 by Etest; type: functional
[4] = tested on: Staphylococcus aureus; assay: Antimicrobial activity against Staphylococcus aureus CB5035 by Etest; type: functional
[5] = tested on: Staphylococcus aureus; assay: Antimicrobial activity against Staphylococcus aureus CB5036 by Etest; type: functional
[6] = tested on: Staphylococcus aureus; assay: Antimicrobial activity against Staphylococcus aureus BMC1001 by Etest
[7] = tested on: Staphylococcus aureus; assay: Antimicrobial activity against Staphylococcus aureus BMC1002 by Etest; type: functional
[8] = tested on: Cell membrane; assay: Binding affinity to methicillin-susceptible Staphylococcus aureus 11/11 cell membrane assessed as amount of compound bound at 6 ug after 10 mins
[9] = tested on: Cell membrane; assay: Binding affinity to daptomycin-resistant Staphylococcus aureus REF2145 cell membrane assessed as amount of compound bound at 6 ug after 10 mins
[10] = tested on: Staphylococcus aureus; assay: AUC in methicillin-resistant sStaphylococcus aureus 11/11; settings: in vitro population analysis
[11] = tested on: Staphylococcus aureus; assay: Antimicrobial activity against Staphylococcus aureus CB184 after 24 hrs by Etest; settings: CB184, 24 h
[12] = tested on: Cell membrane; assay: Binding affinity to methicillin-susceptible Staphylococcus aureus 11/11 cell membrane assessed as amount of compound bound at 8 ug after 10 mins
[13] = tested on: Cell membrane; assay: Binding affinity to daptomycin-resistant Staphylococcus aureus REF2145 cell membrane assessed as amount of compound bound at 8 ug after 10 mins

Row | Compound | MIC [1] | MIC [2] | MIC [3] | MIC [4] | MIC [5] | MIC [6] | MIC [7] | Activity [8] | Activity [9] | AUC [10] | MIC [11] | Activity [12] | Activity [13]
1 | CCCCCCCCCC(=O)N[C@@H](Cc1c[nH]c2ccccc12)C(=O)N[C@H](CC(N)=O)C(=O)N[C@@H](CC(=O)O)C(=O)N[C@@H]1C(=O)NCC(=O)N[C@@H](CCCN)C(=O)N[C@@H](CC(=O)O)C(=O)N[C@H](C)C(=O)N[C@@H](CC(=O)O)C(=O)NCC(=O)N[C@H](CO)C(=O)N[C@@H]([C@H](C)CC(=O)O)C(=O)N[C@@H](CC(=O)c2ccccc2N)C(=O)O[C@@H]1C | 0.5 µg/mL (≈ 0.309 µM) | 0.5 µg/mL (≈ 0.309 µM) | 2 µg/mL (≈ 1.23 µM) | 0.38 µg/mL (≈ 0.234 µM) | 2 µg/mL (≈ 1.23 µM) | 0.5 µg/mL (≈ 0.309 µM) | 2 µg/mL (≈ 1.23 µM) | 2.03 µg/mL | 0.79 µg/mL | 8.41 µg/mL | 4 µg/mL (≈ 2.47 µM) | – | –
2 | CN[C@H](CC(C)C)C(=O)N[C@H]1C(=O)N[C@@H](CC(N)=O)C(=O)N[C@H]2C(=O)N[C@H]3C(=O)N[C@H](C(=O)N[C@H](C(=O)O)c4cc(O)cc(O)c4-c4cc3ccc4O)[C@H](O)c3ccc(c(Cl)c3)Oc3cc2cc(c3O[C@@H]2O[C@H](CO)[C@@H](O)[C@H](O)[C@H]2O[C@H]2C[C@](C)(N)[C@H](O)[C@H](C)O2)Oc2ccc(cc2Cl)[C@H]1O [VANCOMYCIN] | – | – | – | – | – | – | – | – | – | 5.96 µg/mL | – | 1.81 µg/mL | 1.78 µg/mL
